{"source": "ChEMBL document CHEMBL5465560", "about": "“Selectivity Literature for EUbOPEN Chemogenomic Library” (2024)", "key": {"[1]": {"molecular_target": "Glucocorticoid receptor (Homo sapiens, UniProt P04150)", "sequence (P04150 whole entry)": "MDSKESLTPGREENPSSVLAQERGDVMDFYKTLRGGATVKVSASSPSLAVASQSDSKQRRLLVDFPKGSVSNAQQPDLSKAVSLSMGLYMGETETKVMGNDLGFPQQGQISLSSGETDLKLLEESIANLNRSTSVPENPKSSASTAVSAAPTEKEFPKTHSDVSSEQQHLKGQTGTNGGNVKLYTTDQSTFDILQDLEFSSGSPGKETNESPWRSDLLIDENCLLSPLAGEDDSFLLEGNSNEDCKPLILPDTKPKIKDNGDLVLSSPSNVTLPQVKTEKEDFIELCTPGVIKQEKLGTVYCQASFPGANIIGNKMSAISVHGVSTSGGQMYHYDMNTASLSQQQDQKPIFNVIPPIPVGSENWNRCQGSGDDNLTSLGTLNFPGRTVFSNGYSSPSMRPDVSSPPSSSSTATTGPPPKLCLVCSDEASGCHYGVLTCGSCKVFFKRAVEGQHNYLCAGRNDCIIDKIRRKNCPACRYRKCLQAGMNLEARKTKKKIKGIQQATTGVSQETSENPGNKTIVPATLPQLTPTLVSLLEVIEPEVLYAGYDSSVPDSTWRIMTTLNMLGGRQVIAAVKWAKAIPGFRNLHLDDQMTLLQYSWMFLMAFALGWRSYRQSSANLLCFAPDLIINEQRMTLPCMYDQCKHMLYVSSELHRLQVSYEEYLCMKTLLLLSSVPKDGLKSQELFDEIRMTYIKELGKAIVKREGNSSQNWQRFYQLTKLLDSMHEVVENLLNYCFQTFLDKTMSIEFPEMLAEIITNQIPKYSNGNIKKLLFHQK", "test": "Selectivity interaction (Glucocorticoid receptor binding assay, human recombinant ) EUB0000877a NR3C1"}, "[2]": {"molecular_target": "T1, Serine/threonine-protein kinase D1 (Homo sapiens) (UniProt Q15139)", "T1 sequence (whole entry)": "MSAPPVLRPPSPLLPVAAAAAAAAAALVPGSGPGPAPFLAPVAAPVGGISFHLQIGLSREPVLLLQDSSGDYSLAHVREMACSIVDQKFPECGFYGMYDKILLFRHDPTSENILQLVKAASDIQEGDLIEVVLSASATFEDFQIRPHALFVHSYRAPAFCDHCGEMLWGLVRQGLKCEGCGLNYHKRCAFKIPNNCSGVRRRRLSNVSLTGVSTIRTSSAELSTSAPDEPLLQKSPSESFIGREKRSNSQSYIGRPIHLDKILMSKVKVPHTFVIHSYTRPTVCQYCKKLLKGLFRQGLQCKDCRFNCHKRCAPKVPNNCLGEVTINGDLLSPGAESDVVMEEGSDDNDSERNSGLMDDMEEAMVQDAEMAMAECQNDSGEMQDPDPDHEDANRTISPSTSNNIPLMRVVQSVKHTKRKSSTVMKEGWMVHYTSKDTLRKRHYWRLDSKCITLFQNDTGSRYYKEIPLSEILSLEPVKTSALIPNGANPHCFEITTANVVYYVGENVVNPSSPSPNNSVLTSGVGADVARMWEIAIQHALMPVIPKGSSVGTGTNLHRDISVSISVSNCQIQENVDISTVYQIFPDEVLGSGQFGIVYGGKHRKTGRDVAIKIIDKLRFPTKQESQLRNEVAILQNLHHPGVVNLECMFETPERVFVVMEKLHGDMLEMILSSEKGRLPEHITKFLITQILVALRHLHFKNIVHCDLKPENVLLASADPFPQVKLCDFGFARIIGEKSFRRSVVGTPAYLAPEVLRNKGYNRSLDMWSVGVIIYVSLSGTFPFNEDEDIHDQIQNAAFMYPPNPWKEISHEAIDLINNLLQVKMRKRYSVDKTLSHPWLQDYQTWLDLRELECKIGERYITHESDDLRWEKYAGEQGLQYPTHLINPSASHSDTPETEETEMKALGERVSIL", "test": "Selectivity interaction (Kinase panel (Z-LYTE Assay)) EUB0001632a PRKD1", "settings": "at 10 µM"}, "[3]": {"molecular_target": "Angiopoietin-1 receptor (Homo sapiens) (UniProt Q02763)", "sequence (Q02763 whole entry)": "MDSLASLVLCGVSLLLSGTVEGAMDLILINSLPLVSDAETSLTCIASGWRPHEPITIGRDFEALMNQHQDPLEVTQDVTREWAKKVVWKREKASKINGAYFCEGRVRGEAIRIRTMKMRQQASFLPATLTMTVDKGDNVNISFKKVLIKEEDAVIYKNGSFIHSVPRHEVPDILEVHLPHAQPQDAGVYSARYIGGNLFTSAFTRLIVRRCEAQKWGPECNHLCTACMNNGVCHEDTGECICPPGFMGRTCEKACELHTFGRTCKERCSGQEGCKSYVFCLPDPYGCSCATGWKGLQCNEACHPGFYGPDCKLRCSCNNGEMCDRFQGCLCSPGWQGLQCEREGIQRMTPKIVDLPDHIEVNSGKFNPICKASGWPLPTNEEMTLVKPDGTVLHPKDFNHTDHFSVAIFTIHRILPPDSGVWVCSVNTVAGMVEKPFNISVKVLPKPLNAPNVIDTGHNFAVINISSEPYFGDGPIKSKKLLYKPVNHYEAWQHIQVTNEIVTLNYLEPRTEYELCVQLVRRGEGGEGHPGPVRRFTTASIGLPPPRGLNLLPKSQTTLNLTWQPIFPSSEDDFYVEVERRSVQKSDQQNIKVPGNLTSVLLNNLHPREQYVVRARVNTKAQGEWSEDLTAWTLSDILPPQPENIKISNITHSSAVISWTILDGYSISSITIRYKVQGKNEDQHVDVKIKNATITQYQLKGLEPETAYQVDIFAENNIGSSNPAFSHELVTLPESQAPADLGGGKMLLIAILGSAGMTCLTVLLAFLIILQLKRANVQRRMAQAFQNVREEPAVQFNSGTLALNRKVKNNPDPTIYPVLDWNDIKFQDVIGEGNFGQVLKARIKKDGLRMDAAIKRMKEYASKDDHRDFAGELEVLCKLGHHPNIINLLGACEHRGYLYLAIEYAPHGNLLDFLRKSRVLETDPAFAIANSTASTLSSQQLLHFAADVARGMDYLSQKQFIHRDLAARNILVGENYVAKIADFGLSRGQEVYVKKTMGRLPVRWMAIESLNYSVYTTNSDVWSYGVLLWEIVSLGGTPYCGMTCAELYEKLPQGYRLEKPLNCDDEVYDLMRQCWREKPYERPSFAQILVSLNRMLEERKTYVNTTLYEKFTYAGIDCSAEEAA", "test": "(§1) Selectivity interaction (Kinase panel (Z-LYTE Assay)) EUB0001632a TEK", "settings": "at 10 µM"}, "[4]": {"tested_on": "Angiopoietin-1 receptor (Homo sapiens), Q02763 [Y897S]", "sequence (Q02763 whole entry Y897S)": "as the sequence (Q02763 whole entry) above, with Y897S counted along it", "test": "as §1", "settings": "at 10 µM"}, "[5]": {"molecular_target": "T2, Dual specificity mitogen-activated protein kinase kinase 5 (Homo sapiens) (UniProt Q13163)", "T2 sequence (whole entry)": "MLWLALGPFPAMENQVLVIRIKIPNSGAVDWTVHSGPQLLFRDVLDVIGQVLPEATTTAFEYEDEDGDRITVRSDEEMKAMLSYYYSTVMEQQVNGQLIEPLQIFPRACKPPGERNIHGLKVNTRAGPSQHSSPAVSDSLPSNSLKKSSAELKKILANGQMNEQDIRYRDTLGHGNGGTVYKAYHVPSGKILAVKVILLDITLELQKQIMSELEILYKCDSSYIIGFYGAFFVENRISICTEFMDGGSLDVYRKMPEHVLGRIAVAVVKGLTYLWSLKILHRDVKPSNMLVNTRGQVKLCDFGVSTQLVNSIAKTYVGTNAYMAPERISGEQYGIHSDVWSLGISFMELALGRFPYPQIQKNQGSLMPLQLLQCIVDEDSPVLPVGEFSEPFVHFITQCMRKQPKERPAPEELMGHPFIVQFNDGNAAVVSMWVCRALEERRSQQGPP", "test": "Selectivity interaction (ActivX KiNativ screen (kinase selectivity in THP-1 cell lysates)) EUB0000639a MAP2K5", "format": "subcellular", "settings": "lysate"}, "[6]": {"molecular_target": "Ribosomal protein S6 kinase alpha-2 (Homo sapiens) (UniProt Q15349)", "sequence (Q15349 whole entry)": "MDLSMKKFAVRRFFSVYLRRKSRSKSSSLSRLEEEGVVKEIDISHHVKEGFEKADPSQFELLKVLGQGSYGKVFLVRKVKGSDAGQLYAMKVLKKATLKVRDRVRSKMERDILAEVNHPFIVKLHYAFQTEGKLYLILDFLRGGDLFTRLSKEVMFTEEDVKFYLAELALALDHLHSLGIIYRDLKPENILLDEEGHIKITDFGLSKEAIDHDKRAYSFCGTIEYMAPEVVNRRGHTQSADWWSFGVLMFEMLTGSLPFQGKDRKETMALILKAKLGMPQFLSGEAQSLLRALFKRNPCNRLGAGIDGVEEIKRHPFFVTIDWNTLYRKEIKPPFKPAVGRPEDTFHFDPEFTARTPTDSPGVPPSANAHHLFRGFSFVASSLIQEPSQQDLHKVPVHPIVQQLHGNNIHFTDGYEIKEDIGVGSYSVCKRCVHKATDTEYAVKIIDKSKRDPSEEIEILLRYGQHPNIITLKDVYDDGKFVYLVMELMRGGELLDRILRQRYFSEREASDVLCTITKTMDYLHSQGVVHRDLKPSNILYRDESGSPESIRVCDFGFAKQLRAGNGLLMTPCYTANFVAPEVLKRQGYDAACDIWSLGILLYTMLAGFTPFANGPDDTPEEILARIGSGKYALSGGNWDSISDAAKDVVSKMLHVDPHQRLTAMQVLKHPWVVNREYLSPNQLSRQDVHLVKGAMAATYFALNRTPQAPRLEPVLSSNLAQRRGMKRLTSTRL", "test": "Selectivity interaction (KinomeScan (DiscoverX)) EUB0000607a RPS6KA2", "settings": "at 10 µM"}, "[7]": {"molecular_target": "T3, Serine/threonine-protein kinase TAO3 (Homo sapiens) (UniProt Q9H2K8)", "T3 sequence (whole entry)": "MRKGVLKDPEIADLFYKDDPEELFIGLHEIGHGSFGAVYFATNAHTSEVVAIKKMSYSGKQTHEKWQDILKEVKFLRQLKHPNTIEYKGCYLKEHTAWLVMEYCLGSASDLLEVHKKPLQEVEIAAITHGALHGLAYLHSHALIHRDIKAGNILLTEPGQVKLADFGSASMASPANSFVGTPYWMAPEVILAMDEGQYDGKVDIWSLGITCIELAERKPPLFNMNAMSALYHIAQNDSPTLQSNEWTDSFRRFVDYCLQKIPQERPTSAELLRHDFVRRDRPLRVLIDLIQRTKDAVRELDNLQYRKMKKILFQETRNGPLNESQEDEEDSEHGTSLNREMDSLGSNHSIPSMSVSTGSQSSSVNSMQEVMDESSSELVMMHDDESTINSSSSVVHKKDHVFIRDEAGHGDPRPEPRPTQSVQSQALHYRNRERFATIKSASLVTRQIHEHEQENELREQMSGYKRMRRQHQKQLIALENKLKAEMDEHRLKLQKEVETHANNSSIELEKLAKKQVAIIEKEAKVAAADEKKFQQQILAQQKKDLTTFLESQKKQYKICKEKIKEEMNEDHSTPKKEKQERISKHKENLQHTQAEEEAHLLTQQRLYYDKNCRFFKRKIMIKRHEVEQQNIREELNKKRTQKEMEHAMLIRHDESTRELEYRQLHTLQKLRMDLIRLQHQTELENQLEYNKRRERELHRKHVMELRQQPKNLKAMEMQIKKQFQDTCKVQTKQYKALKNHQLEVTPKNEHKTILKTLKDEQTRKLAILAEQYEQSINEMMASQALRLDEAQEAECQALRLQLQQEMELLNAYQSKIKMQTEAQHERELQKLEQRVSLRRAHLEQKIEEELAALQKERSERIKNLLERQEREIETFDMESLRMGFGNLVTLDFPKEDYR", "test": "Selectivity interaction (KinomeScan (DiscoverX)) EUB0000695a TAOK3", "settings": "at 100 nM"}, "[8]": {"molecular_target": "Phosphatidylinositol 4-kinase beta (Homo sapiens, UniProt Q9UBF8)", "sequence (Q9UBF8 2-816 limits assumed)": "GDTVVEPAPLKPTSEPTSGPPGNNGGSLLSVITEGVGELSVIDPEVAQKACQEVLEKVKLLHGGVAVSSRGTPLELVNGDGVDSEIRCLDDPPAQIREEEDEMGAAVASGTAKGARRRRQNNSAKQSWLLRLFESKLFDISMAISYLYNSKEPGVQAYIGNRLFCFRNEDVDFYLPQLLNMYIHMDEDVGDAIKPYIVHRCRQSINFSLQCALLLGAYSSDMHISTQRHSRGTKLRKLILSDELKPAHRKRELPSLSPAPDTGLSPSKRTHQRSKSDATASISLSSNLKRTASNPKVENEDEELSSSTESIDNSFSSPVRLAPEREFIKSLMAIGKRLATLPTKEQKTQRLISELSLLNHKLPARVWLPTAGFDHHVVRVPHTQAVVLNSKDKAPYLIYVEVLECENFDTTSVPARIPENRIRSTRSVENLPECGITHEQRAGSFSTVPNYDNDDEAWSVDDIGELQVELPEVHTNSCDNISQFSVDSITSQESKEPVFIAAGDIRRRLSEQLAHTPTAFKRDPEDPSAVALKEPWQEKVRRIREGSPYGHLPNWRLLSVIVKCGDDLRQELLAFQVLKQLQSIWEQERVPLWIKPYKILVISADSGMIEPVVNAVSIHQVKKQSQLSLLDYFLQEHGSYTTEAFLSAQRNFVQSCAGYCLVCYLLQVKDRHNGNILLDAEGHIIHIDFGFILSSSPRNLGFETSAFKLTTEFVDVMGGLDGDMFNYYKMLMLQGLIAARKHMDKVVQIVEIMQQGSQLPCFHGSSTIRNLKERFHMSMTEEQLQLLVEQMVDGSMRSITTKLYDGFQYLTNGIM", "test": "Selectivity interaction (Kinase panel (literature)) EUB0001199aCl PI4KB", "settings": "at 1 µM"}}, "data": [{"smiles": "CCC(=O)N1CC[C@H](Nc2ncnc3c2CN(c2cnc(OC)c(C(F)(F)F)c2)CC3)C1", "note": "[LENIOLISIB]", "values": [{"measurement": "IC50", "setting": "[1]", "value": "> 30", "unit": "µM"}]}, {"smiles": "Cn1cc(-n2cnc3c(NCc4nc5cc(Cl)c(Cl)cc5[nH]4)nc(N4CCOCC4)nc32)cn1", "values": [{"measurement": "% of control", "setting": "[2]", "value": 3.91, "unit": "%"}, {"measurement": "% of control", "setting": "[3]", "value": -5.98, "unit": "%"}, {"measurement": "% of control", "setting": "[4]", "value": 0.243, "unit": "%"}]}, {"smiles": "CC[C@@H]1[C@H](F)C(=O)N[C@@H]1COc1nccc2cc(C(N)=O)c(OC)cc12", "note": "[ZIMLOVISERTIB]", "values": [{"measurement": "% of inhibition", "setting": "[5]; at 0.01 µM", "value": 4.3, "unit": "%"}, {"measurement": "% of inhibition", "setting": "[5]; at 0.04 µM", "value": -11.1, "unit": "%"}, {"measurement": "% of inhibition", "setting": "[5]; at 0.2 µM", "value": -18.3, "unit": "%"}, {"measurement": "% of inhibition", "setting": "[5]; at 1 µM", "value": -7.3, "unit": "%"}, {"measurement": "% of inhibition", "setting": "[5]; at 5 µM", "value": -18.8, "unit": "%"}]}, {"smiles": "CNC(=O)Nc1ccc(-c2nc(N3CC4CCC(C3)O4)c3cnn(C4CCC5(CC4)OCCO5)c3n2)cc1", "values": [{"measurement": "% of control", "setting": "[6]", "value": 93, "unit": "%"}]}, {"smiles": "Cc1cc(F)c(C(=O)Nc2cccc(-c3nncn3C(C)C)n2)cc1-n1cnc(C2CC2)c1", "values": [{"measurement": "% of control", "setting": "[7]", "value": 100, "unit": "%"}]}, {"smiles": "CN1Cc2nccc(-c3cn(C)nc3-c3ccc(F)cc3)c2C1=O", "values": [{"measurement": "% of inhibition", "setting": "[8]", "value": -3, "unit": "%"}]}]}
